In patent US20140045832A1, “Insulin-Like Growth Factor-1 Receptor Inhibitors” (PIRAMAL ENTERPRISES LIMITED, priority 2011, published 2014):

Experiments:
[1] = target: T1, human IGF-1R (Homo sapiens, UniProt P08069); test: In vitro IGF-1R kinase assay (HTRF); type: biochemical; details: intracellular kinase domain GST fusion, ATP 20 μM, 1 hour at 23° C., read-out: IGFIR-Activity
T1 construct: IGFRK and IRK enzyme used for the assay was intracellular kinase domain of human IGF-1R and human IR; made in house
T1 sequence (P08069 999-1274 limits assumed): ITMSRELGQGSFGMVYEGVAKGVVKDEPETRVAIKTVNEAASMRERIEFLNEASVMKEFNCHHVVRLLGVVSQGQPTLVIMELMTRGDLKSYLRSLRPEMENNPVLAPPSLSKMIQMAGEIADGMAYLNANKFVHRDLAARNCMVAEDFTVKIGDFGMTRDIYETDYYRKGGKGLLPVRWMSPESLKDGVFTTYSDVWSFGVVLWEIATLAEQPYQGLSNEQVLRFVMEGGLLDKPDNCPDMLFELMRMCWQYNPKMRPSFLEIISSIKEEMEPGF
Experimental: The in vitro kinase assays using IGF-1R and IR kinase GST fusion proteins were conducted using a homogeneous time-resolved fluorescence (HTRF) format. […] The standard enzyme reaction buffer consisted of 50 mM Tris HCL (pH: 7.4), 1 mM EGTA, 10 mM MgCl2, 2 mM DTT, 0.01% Tween-20, IGF-1R/IR kinase enzyme, poly GT peptide substrate (Perkin Elmer [Ulight Glu-Tyr (4:1)]n) and ATP [concentration equivalent to Kmapp]. […] Briefly, 2.5 μL enzyme and 2.5 μL inhibitor was pre-incubated for 10 minutes at 23° C. followed by the addition of 2.5 μL of poly GT substrate (final concentration of 50 nM). Reaction was initiated with the addition of 2.5 μL of ATP (final concentration of 20 μM for IGF-1R assay and 10 μM for IR assay). After 1 hour incubation at 23° C., the kinase reaction was stopped with the addition of 5 μL EDTA (final concentration of 10 mM in 20 μL). Europium cryptate—labeled antiphosphotyrosine antibody PY20 (5 μL) was added (final concentration of 2 nM) and the mixture was allowed to equilibrate for 1 hour at 23° C. followed by reading the plate in an Envision plate reader. The intensity of light emission at 665 nm was directly proportional to the level of substrate phosphorylation. The IC50 values for inhibitors were determined by a four-parameter sigmoidal curve fit (Sigma plot or Graph pad).
IGFRK and IRK enzyme used for the assay was intracellular kinase domain of human IGF-1R and human IR cloned and expressed as GST fusion proteins using the baculovirus expression system and purified using glutathione—Sepharose column.

[2] = tested on: MCF7 cell line; test: Anti-proliferative assay (MTS/CCK-8), MCF7; type: cell-based; details: Homo sapiens; MCF7 (breast cancer) cells, 100 ng/mL IGF without FCS, 72 hours; read-out: Anti-proliferation IC50 (μM) MCF7 cell line
Experimental: (§1) Anti-proliferative potential of compounds was tested using various cell lines (details provided in Table 2) by MTS (Promega, Cat # G1111), a tetrazolium compound ((3-(4,5-dimethylthiazol-2-yl)-5-(3-carboxymethoxyphenyl)-2-(4-sulphophenyl)-2H-tetrazolium, inner salt; MTS) and Cell Counting kit-8 (CCK-8 a Dojindo's highly water-soluble tetrazolium salt of WST-8 [2-(2-methoxy-4-nitrophenyl)-3-(4-nitrophenyl)-5-(2,4-disulfophenyl)-2H-tetrazolium, monosodium salt]). MTS is a colorimetric assay for determining the number of viable cells in proliferation, cytotoxicity or chemosensitivity assays. This is used with an electron coupling reagent PMS (Phenazine methosulfate). MTS is bioreduced by cells into a formazan that is soluble in tissue culture medium. The absorbance of the formazan at 490 nm can be measured directly from 96 well assay plates without additional processing. Dehydrogenase enzymes found in metabolically active cells accomplish the conversion of MTS into the aqueous soluble formazan. The quantity of formazan product is directly proportional to the number of living cells in culture. In CCK-8, WST-8 is reduced by dehydrogenases in cells to give a yellow colored product formazan, which is measured at 450 nm.
(§2) For experimental purposes, cells were seeded at a density of 3000-5000 cells per well in 180 μL/well volume in transparent 96 well tissue culture plate (NUNC, USA) and incubated overnight at 37° C., 5% CO2. […] Plates were incubated for 3-4 hours and absorbance was measured at 490 nm on Spectrophotometer (SpectraMax, Molecular Devices). Percentage cytotoxicity and IC50 was calculated using SoftMax software. […] After 4 hour incubation, the absorbance was determined at 450 nm using Spectrophotometer (SpectraMax, Molecular Devices). […]

[3] = tested on: HT29 cell line; test: Anti-proliferative assay (MTS/CCK-8), HT29; type: cell-based; details: Homo sapiens, HT-29; HT29 (colon cancer) cells, 100 ng/mL IGF without FCS, 72 hours; read-out: Anti-proliferation IC50 (μM) HT29 cell line
Experimental: as §1, §2

[4] = target: T2, CYP3A4 (Homo sapiens, UniProt P08684); test: CYP inhibition fluorescence assay (rhCYP450, Vivid Invitrogen kit); type: in vitro ADME; details: recombinant human CYP3A4, 10 μM compound, read-out: % inhibition of CYP 3A4 at 10 μM
T2 construct: purchased Invitrogen (Vivid screening kits)
T2 sequence (P08684 whole entry): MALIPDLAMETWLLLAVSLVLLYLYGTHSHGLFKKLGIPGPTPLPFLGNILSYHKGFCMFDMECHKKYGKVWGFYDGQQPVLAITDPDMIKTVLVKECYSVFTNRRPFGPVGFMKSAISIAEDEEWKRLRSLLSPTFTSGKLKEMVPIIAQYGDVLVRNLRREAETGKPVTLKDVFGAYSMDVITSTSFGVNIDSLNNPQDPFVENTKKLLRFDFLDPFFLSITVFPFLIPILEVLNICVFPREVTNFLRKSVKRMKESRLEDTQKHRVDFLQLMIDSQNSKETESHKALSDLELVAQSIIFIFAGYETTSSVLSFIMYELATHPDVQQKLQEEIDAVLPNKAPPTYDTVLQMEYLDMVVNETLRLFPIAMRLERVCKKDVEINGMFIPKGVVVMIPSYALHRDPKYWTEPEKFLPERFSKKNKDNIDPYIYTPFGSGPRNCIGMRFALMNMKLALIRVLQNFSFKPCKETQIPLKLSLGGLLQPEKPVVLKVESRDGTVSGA
Experimental: The % inhibition @ 10 μM data was generated from an rhCYP450/fluorescence assay according to the Vivid Invitrogen screening kits. The compounds were screened against CYP 3A4 isoform because CYP3A4 is responsible for the metabolism of approximately 50-60% of clinical drugs. The lower the percentage inhibition, the lower the CYP450 inhibitory liability of that specific compound.

IC50 [1] [nM] | IC50 [2] [µM] | IC50 [3] [µM] | inhibition at 10 µM [4] [%] | SMILES
16 | < 1 | 5.3 | – | N#CCCNc1cc(Cl)cc2c(S(=O)(=O)N3CCO[C@H](COc4ccccc4)C3)c(C(N)=O)[nH]c12 [Compound 19, (S)-5-chloro-7-(2-cyanoethylamino)-3-(2-(phenoxymethyl)morpholinosulfonyl)-1H-indole-2-carboxamide]
< 100 | 0.8 | 2.8 | – | NC(=O)c1[nH]c2c(NC3CCOCC3)cc(Cl)cc2c1S(=O)(=O)N1CCO[C@H](COc2ccccc2)C1 [Compound 20, (S)-5-chloro-3-(2-(phenoxymethyl)morpholinosulfonyl)-7-(tetrahydro-2H-pyran-4-ylamino)-1H-indole-2-carboxamide]
68.5 | 0.9 | 1.7 | 47 | CCOC(=O)N1CCC(Nc2cc(Cl)cc3c(S(=O)(=O)N4CCO[C@H](COc5ccccc5)C4)c(C(N)=O)[nH]c23)CC1 [Compound 34, (S)-ethyl 4-(2-carbamoyl-5-chloro-3-(2-(phenoxymethyl)morpholinosulfonyl)-1H-indol-7-ylamino)piperidine-1-carboxylate]
